Patent US20230011269A1, “PHARMACEUTICAL COMPOSITION COMPRISING A POTENT INHIBITOR OF URAT1” (Ardea Biosciences, Inc., priority 2015, published 2023)
Like-named read-outs stand apart in the source and are kept apart here.

Legend:
Assay type in all cases: in vivo, human
[1] = Phase 1 single dose study, immediate release formulations: plasma pharmacokinetics; conditions: for AUC(0-t): read-out: AUC0-24
Description: (§1) A phase 1, randomized, double-blind, placebo-controlled study in healthy adult male volunteers evaluated single rising doses and the preliminary food effect for 2-((3-(4-cyanonaphthalen-1-yl)pyridine-4-yl)thio)-2-methylpropanoic acid at 6 dose groups with 8 subjects per group. […] Subjects in each dose group were randomized to receive a single dose of either 2-((3-(4-cyanonaphthalen-1-yl)pyridine-4-yl)thio)-2-methylpropanoic acid (6 subjects) or placebo (2 subjects). 2-((3-(4-cyanonaphthalen-1-yl)pyridine-4-yl)thio)-2-methylpropanoic acid was supplied as 1 mg oral solution, 2 mg oral solution, 5 mg tablets, or 20 mg tablets (depending on dose level).
Segment A evaluated single rising doses of 2 mg, 5 mg, 20 mg and 40 mg and the preliminary food effect of 2-((3-(4-cyanonaphthalen-1-yl)pyridine-4-yl)thio)-2-methylpropanoic acid at the 5 mg and 20 mg doses followed by multiple ascending doses of 1 mg, 5 mg and 10 mg qd in Segment B.
The oral solution was prepared by the clinical pharmacist in bulk within 24 hours of administration. The oral solution of 2-((3-(4-cyanonaphthalen-1-yl)pyridine-4-yl)thio)-2-methylpropanoic acid (0.033 mg/mL concentration) was prepared as a mixture of the appropriate amount of 2-((3-(4-cyanonaphthalen-1-yl)pyridine-4-yl)thio)-2-methylpropanoic acid powder, anhydrous dibasic sodium phosphate, and sterile water for irrigation; placebo oral solution was prepared as a vehicle using anhydrous dibasic sodium phosphate and sterile water for irrigation. […] Plasma samples were collected at the following time-points in relation to dosing on Day 1: pre-dose (within 30 minutes before dosing) and at 0.25, 0.5, 0.75, 1, 1.5, 2, 2.5, 3, 4, 5, 6, 8, 10, 12, 24, 30, 36, 48, 54, 60, and 72 hours post-dose, and were analysed for 2-((3-(4-cyanonaphthalen-1-yl)pyridine-4-yl)thio)-2-methylpropanoic acid content.

serum urate = test: Phase 1 single dose study, immediate release formulations: serum urate lowering; conditions: mean maximum observed percentage change from pre-dose in serum urate concentrations (Emax)
Description: as §1
(§2) The mean plasma concentration-time profiles for the IR formulations under fed and fasted conditions are depicted in FIGS. 3a and 3b. Absorption of 2-((3-(4-cyanonaphthalen-1-yl)pyridine-4-yl)thio)-2-methylpropanoic acid following a single oral dose under fasted conditions was rapid. […] When 2-((3-(4-cyanonaphthalen-1-yl)pyridine-4-yl)thio)-2-methylpropanoic acid was administered with food, slightly slower absorption and lower exposure were observed. […] Important pharmacodynamic parameters related to the serum Uric Acid lowering effects are shown in the following two tables: […]

urine urate excretion = test: Phase 1 single dose study, immediate release formulations: urine urate excretion; conditions: 5 mg/Fasted
Description: as §1, §2

[2] = 2 mg single dose, Fasted, oral solution, Group 5, N = 6, Geomean
[3] = 5 mg single dose, Fasted, 1 × 5 mg tablet, Group 4, N = 6, Geomean
[4] = 5 mg single dose, Fed, 1 × 5 mg tablet, Group 6, N = 6, Geomean
[5] = 20 mg single dose, Fasted, 1 × 20 mg tablet, Group 1, N = 6, Geomean
[6] = 20 mg single dose, Fed, 1 × 20 mg tablet, Group 3, N = 6, Geomean
[7] = 40 mg single dose, Fasted, 2 × 20 mg tablet, Group 2, N = 6, Geomean
[8] = mg of urate per urine collection period

CC(C)(Sc1ccncc1-c1ccc(C#N)c2ccccc12)C(=O)O [2-((3-(4-cyanonaphthalen-1-yl)pyridine-4-yl)thio)-2-methylpropanoic acid]
AUC∞ [1, 2]: 45 ng·h/mL | Cmax [1, 2]: 36.4 ng/mL | t1/2 [1, 2]: 12.1 h | Tmax ([1]; 2 mg single dose, Fasted, oral solution, Group 5, N = 6, median): 0.500 h | AUC∞ [1, 3]: 121 ng·h/mL | Cmax [1, 3]: 72.9 ng/mL | t1/2 [1, 3]: 14.2 h | AUC∞ [1, 4]: 92.8 ng·h/mL | Cmax [1, 4]: 45.7 ng/mL | t1/2 [1, 4]: 12.7 h | Tmax ([1]; 5 mg single dose, Fed, 1 × 5 mg tablet, Group 6, N = 6, median): 1.25 h | Cmax ([1]; 5 mg/Fasted, immediate release, read-out: Cmax): 72.9 ng/mL | Cmax [1, 5]: 384 ng/mL | t1/2 [1, 5]: 10.9 h | Tmax ([1]; 20 mg single dose, Fasted, 1 × 20 mg tablet, Group 1, N = 6, median): 0.500 h | AUC∞ [1, 6]: 415 ng·h/mL | Cmax [1, 6]: 181 ng/mL | t1/2 [1, 6]: 13.8 h | Tmax ([1]; 20 mg single dose, Fed, 1 × 20 mg tablet, Group 3, N = 6, median): 1.25 h | AUC∞ [1, 7]: 1270 ng·h/mL | t1/2 [1, 7]: 9.51 h | Tmax ([1]; 40 mg single dose, Fasted, 2 × 20 mg tablet, Group 2, N = 6, median): 0.750 h | AUC(0-t) ([1]; male, human, plasma, oral, 2 mg, 2 mg/Fasted, immediate release): 38.8 ng·h/mL | AUC(0-t) ([1]; male, human, plasma, oral, 5 mg, 5 mg single dose, Fasted, 1 × 5 mg tablet, Group 4, N = 6, Geomean): 102 ng·h/mL | Tmax ([1]; male, human, plasma, oral, 5 mg, 5 mg single dose, Fasted, 1 × 5 mg tablet, Group 4, N = 6, median, read-out: Tmax): 0.625 h | AUC(0-t) ([1]; male, human, plasma, oral, 5 mg, 5 mg single dose, Fed, 1 × 5 mg tablet, Group 6, N = 6, Geomean): 75.2 ng·h/mL | AUC(0-t) ([1]; male, human, plasma, oral, 5 mg, 5 mg/Fasted, immediate release): 102 ng·h/mL | AUC(0-t) ([1]; male, human, plasma, oral, 20 mg, 20 mg single dose, Fasted, 1 × 20 mg tablet, Group 1, N = 6, Geomean): 463 ng·h/mL | AUC(0-t) ([1]; male, human, plasma, oral, 20 mg, 20 mg single dose, Fed, 1 × 20 mg tablet, Group 3, N = 6, Geomean): 350 ng·h/mL | AUC(0-t) ([1]; male, human, plasma, oral, 20 mg, 20 mg/Fasted, immediate release): 463 ng·h/mL | AUC(0-t) ([1]; male, human, plasma, oral, 40 mg, 40 mg single dose, Fasted, 2 × 20 mg tablet, Group 2, N = 6, Geomean): 1070 ng·h/mL | AUC(0-t) ([1]; male, human, plasma, oral, 40 mg, 40 mg/Fasted, immediate release): 1070 ng·h/mL | AUC(0-inf) ([1]; male, human, plasma, oral, 20 mg single dose, Fasted, 1 × 20 mg tablet, Group 1, N = 6, Geomean): 540 ng·h/mL | Cmax ([1]; male, human, plasma, oral, 40 mg single dose, Fasted, 2 × 20 mg tablet, Group 2, N = 6, Geomean, read-out: Cmax): 760 ng/mL | AUC(0-t) ([1]; male, human, plasma, po, 2 mg, 2 mg single dose, Fasted, oral solution, Group 5, N = 6, Geomean): 38.8 ng·h/mL | Tmax ([1]; male, human, plasma, po, 5 mg, immediate release tablet, oral, fasted, human, read-out: Tmax (called mean in b5, median)): 0.6 h | Tmax ([1]; male, human, plasma, po, 5 mg, immediate release tablet, oral, fasted, human, read-out: time at which the peak plasma concentration is observed (Tmax), range): 0.25 to 1.5 h | Cmax ([1]; male, human, plasma, po, 5 mg, read-out: geometric mean maximum plasma concentration (Cmax)): ~73 ng/mL | Mean % change in sUA from predose (serum urate; 2 mg/Fasted): 8% | Mean % change in sUA from predose (serum urate; 5 mg/Fasted): 15% | Mean % change in sUA from predose (serum urate; 20 mg/Fasted): 43% | Mean % change in sUA from predose (serum urate; 40 mg/Fasted): 58% | Urine Urate Excretion 0-6 hrs/0-24 hrs (urine urate excretion): 0.468 | Urine Urate Excretion UUE 0-6 hrs (urine urate excretion; [8]): 509 mg | Urine Urate Excretion UUE 6-12 hrs (urine urate excretion; [8]): 231 mg | Urine Urate Excretion UUE 12-24 hrs (urine urate excretion; [8]): 347 mg
